In the RepoRT retention time repository (doi:10.1021/acs.analchem.1c00972):

Assay: RP, Waters ACQUITY UPLC BEH C18, 100 × 1 mm, 1.7 µm, 50 °C, 0.3 mL/min, estimated dead time 0.17 min; A: water + 0.1% formic acid + 20 mM ammonium formate; B: methanol + 0.1% formic acid + 20 mM ammonium formate; gradient (min/%B) 0/0 15/100 21/100 22/0 30/0
Conditions: stereoisomer not certain

SMILES | LC retention time [min]
NS(=O)(=O)c1ccc(-n2nc(C(F)(F)F)cc2-c2ccc(C(=O)O)cc2)cc1 [Celecoxib Carboxylic Acid] | 13.6
O=C1CCCC=CCCCCCCCCCC1 [Velvione] | 18.1
CCCCOc1cc(C(=O)NCCN(CC)CC)c2ccccc2n1 [Dibucaine] | 13
Cc1ccccc1O [2-Methylphenol] | 14.3
CCCCCCCCCCCCOC(=O)c1ccccc1C(=O)OCCCCCCCCCCCC [Didodecylphthalate] | 21.7
CCCCCCCCCCCCCCCC(=O)NCCO [Palmitoylethanolamide] | 18.4
Cc1cccc(C)c1N(Cn1cccn1)C(=O)C(=O)O [Metazachlor BH 479-4 (Metazachlor oxanilic acid (OA))] | 9.29
Nc1ccc(C=Cc2ccc(N)cc2S(=O)(=O)O)c(S(=O)(=O)O)c1 [4,4'-Diaminostilbene-2,2'-disulfonic acid] | 9.71
Nc1cc(Cl)c(S(N)(=O)=O)cc1S(N)(=O)=O [4-Amino-6-chloro-1,3-benzenedisulfonamide] | 3.6
CCOC(=O)OC1(C(=O)COC(=O)CC)CCC2C3CCC4=CC(=O)C=CC4(C)C3C(O)CC21C (configuration not stated) [Prednicarbate] | 15.3
CC(C)(c1ccccc1)c1cc(-n2nc3ccccc3n2)c(O)c(C(C)(C)c2ccccc2)c1 [UV-234] | 16.6
CCCCCCOC(=O)c1ccccc1C(=O)OCCCCCC [Dihexylphthalate] | 18.2
COC(=O)c1ccc(CNS(C)(=O)=O)cc1S(=O)(=O)NC(=O)Nc1nc(OC)cc(OC)n1 [Mesosulfuron-methyl] | 12.8
CCN(CC)C(=O)Nc1ccc(OCC(O)CNC(C)(C)C)c(C(C)=O)c1 (configuration not stated) [Celiprolol] | 9.97
CC(C)(C)Nc1nc(=O)[nH]c(=O)[nH]1 | 13.3
Cn1ncc(N)c(Cl)c1=O [Methyl-Desphenyl-Chloridazon] | 5.18
CC(C)C1CCC(Cc2ccc(Cl)cc2)C1(O)Cn1cncn1 (single isomer, unassigned; isomer 1) [Ipconazole (Isomer 1)] | 16.4
CCOC(=O)C1CC(=O)C(=C(O)C2CC2)C(=O)C1 (configuration not stated) [Trinexapac-ethyl] | 13.2
CCCCOCN(C(=O)CS(=O)(=O)O)c1c(CC)cccc1CC [Butachlor ESA] | 14.5
Cc1cc(C(F)(C(F)(F)F)C(F)(F)F)ccc1NC(=O)c1cccc(I)c1C(=O)NC(C)(C)CS(C)(=O)=O [Flubendiamide] | 15.4
Cc1cc(C(C)(C)C)cc(C)c1CC1=NCCN1 [Xylometazoline] | 12.4

SMILES | LC retention time [min]
CCC(C)n1c(=O)[nH]c(C)c(Br)c1=O (configuration not stated) [Bromacil] | 11.5
CC(=O)OCC(=O)C12OC(C)(C)OC1CC1C3CC(F)C4=CC(=O)C=CC4(C)C3(F)C(O)CC12C (configuration not stated) [Fluocinonide] | 14.6
COCCOCCO [Diethyleneglycolmonomethylether] | 5.03
CC(C)OC(=O)NC(C(=O)NC(C)c1nc2ccc(F)cc2s1)C(C)C (configuration not stated) [Benthiavalicarb-Isopropyl] | 14.5
O=C(O)c1ccccc1Nc1cccc(C(F)(F)F)c1 [Flufenamic acid] | 16.2
O=C(O)Cc1c[nH]c2ccc(O)cc12 [5-Hydroxyindole-3-acetic acid] | 6.7
Cc1cccc(O)c1 [3-Methylphenol] | 14.3
CC(C)CC(C)OC(=O)c1ccccc1C(=O)OC(C)CC(C)C (configuration not stated) [Bis(4-methyl-2-pentanyl)phthalate] | 18.2
Cc1cn(C2CC(N=[N+]=[N-])C(CO)O2)c(=O)[nH]c1=O (configuration not stated) [Zidovudine] | 8.04
CC(=O)OCC(=O)C1(O)CCC2C3CCC4=CC(=O)CCC4(C)C3C(O)CC21C (configuration not stated) [Hydrocortisonacetate] | 13.4
CCOC(=O)CC(SP(=S)(OC)OC)C(=O)OCC (configuration not stated) [Malathion] | 14.3
O=C(O)c1cccc(Oc2cccc(C(F)(F)F)c2)n1 [Picolinafen-OH-O-dealkylation] | 14
COP(=O)(OC)OC1=C(Cl)C2C=CCC12 (configuration not stated) [Heptenophos] | 13.3
NC(Cc1ccccc1)C(=O)N1CCCC1C(=O)O (configuration not stated) [Phe-Pro] | 8.7
CCOc1cc(Oc2ccc(C(F)(F)F)cc2Cl)ccc1[N+](=O)[O-] [Oxyfluorfen] | 16.8
CCc1cccc(CC)c1N(COC)C(=O)CS(=O)(=O)O [Alachlor tert-sulfonic acid (ESA)] | 11.8
O=c1cc(O)c2ccccc2o1 [4-Hydroxycoumarin] | 10.7
Nc1ccc(Cl)cc1Cl [2,4-Dichloroaniline] | 17.6
CNC(=O)N(C)c1nnc(C(F)(F)F)s1 [Thiazafluron] | 11.8
O=C(O)C1OC(Oc2ccc3c(=O)c(-c4ccc(O)cc4)coc3c2)C(O)C(O)C1O (configuration not stated) [Daidzein_glucuronide] | 8.4
CC1CC(O)C2(O)C13CC(OC(=O)C3O)C(C)(O)C21COC1=O (configuration not stated) [Anisatin] | 7.91

SMILES | LC retention time [min]
COP(=S)(NC(C)C)Oc1ccccc1C(=O)OC(C)C (configuration not stated) [Isofenphos-methyl] | 15.5
O=C1NC(=O)c2ccccc21 [phthalimide] | 7.8
Cc1c(N)c(=O)n(-c2ccccc2)n1C [4-Aminoantipyrine] | 7.28
CCCCCCCCCCCCCCCCCC(=O)OCC(O)CO (configuration not stated) [Glyceryl monostearate] | 19.2
Cc1cc2n[nH]nc2cc1C [5,6-Dimethyl-1,1,1-benzotriazol] | 11.2
CNC(=O)Oc1cc(C)c(S(C)=O)c(C)c1 (configuration not stated) [Methiocarb-sulfoxide] | 9.18
CC(=O)Oc1ccccc1C(=O)O [Acetylsalicyls<e4>ure] | 16.5
O=[N+]([O-])Nc1nccn1Cc1ccc(Cl)nc1 [Imidacloprid-olefin] | 7.92
CCC(C)C1OC2(C=CC1C)CC1CC(CC=C(C)C(OC3CC(OC)C(OC4CC(OC)C(O)C(C)O4)C(C)O3)C(C)C=CC=C3COC4C(O)C(C)=CC(C(=O)O1)C34O)O2 (configuration not stated) [Avermectin B1a (Abamectin)] | 18.1
CCNc1nc(=S)nc(NC(C)(C)C)[nH]1 [Terbutryn-desmethyl] | 11.9
CC12CCC(=O)C=C1CCC1C2CCC2(C)C(OC3OC(C(=O)O)C(O)C(O)C3O)CCC12 (configuration not stated) [testosterone_glucuronide] | 13.6
CN(C)c1ccc(O)c2c1CC1CC3C(N(C)C)C(=O)C(C(N)=O)=C(O)C3(O)C(=O)C1=C2O (configuration not stated) [Minocyclin] | 8.3
OCCc1cccc(O)c1 [2-(3-Hydroxyphenyl)ethanol] | 2.8
Cc1ccc(N=CN(C)C=Nc2ccc(C)cc2C)c(C)c1 [Amitraz] | 17.7
CON=C(Cc1cccnc1)c1ccc(Cl)cc1Cl [Pyrifenox] | 14.3
O=C1NC(=O)C(c2ccccc2)(c2ccccc2)N1 [Phenytoin] | 12
O=c1cc(-c2ccc(O)c(O)c2)oc2cc(OC3OC(CO)C(O)C(O)C3O)cc(O)c12 (configuration not stated) [Luteolin 7-glucoside] | 9.71
NC(Cc1ccccc1)C(=O)O (configuration not stated) [phenylalanine] | 4.7
CCC(C(=O)O)C1CCC(C)C(C(C)C(O)C(C)C(=O)C(CC)C2OC3(C=CC(O)C4(CCC(C)(C5CCC(O)(CC)C(C)O5)O4)O3)C(C)CC2C)O1 (configuration not stated) [Salinomycin] | 18.4
CCOc1ccc(NC(=O)OC(C)C)cc1OCC [Diethofencarb] | 7.48
O=C(O)CNC(=O)c1ccccc1 [Hippuric_acid] | 7.2

SMILES | LC retention time [min]
O=C(O)c1cc(Br)c(O)c(Br)c1 [3,5-Dibromo-4-hydroxybenzoic acid] | 11.4
CC(CCC(=O)O)C1CCC2C3C(O)CC4CC(O)CCC4(C)C3CC(O)C12C (configuration not stated) [Cholic acid] | 16.1
c1ccc2scnc2c1 [Benzothiazole] | 10.8
CCOP(=S)(OCC)SCCSCC [Disulfoton] | 16
O=C(O)c1ccc2ccccc2n1 [Quinaldic acid] | 7.3
COC(=O)C(C)=COP(=S)(OC)OC [Methacrifos] | 12.1
CC=C(C)C(=O)NCC(=O)O [N-Tigloylglycine] | 6.4
Nc1ccc2nc3ccc(N)cc3nc2c1 [2,8-Diaminophenazine] | 8.24
CC1CCCCC1NC(=O)Nc1ccccc1 (configuration not stated) [Siduron] | 13.9
CC(C)Nc1nc(N)[nH]c(=O)n1 [Atrazin-desethyl-2-hydroxy] | 4.31
CCCCCCCCCC(=O)OC(CC(=O)[O-])C[N+](C)(C)C [Decanoyl-L-Carnitine] | 14.5
CN(C)C(=O)Nc1ccc(-n2nc(C(C)(C)C)oc2=O)c(Cl)c1 [Dimefuron] | 13.6
COc1cccc(CO)c1O [2-Hydroxy-3-methoxybenzyl alcohol] | 9
CCCCCCCCCCCOC(=O)c1ccccc1C(=O)OCCCCCCCCCCC [Diundecylphthalate] | 21
CCCCCCCC(O)CC(=O)O (configuration not stated) [3-Hydroxycapric acid] | 12.3
CC(Oc1ccc(Oc2ccc(Cl)cc2Cl)cc1)C(=O)O (configuration not stated) [Diclofop] | 14.3
Cc1ccccc1OP(=O)(Oc1ccccc1C)Oc1ccccc1C [Tris(2-methylphenyl) phosphate (tri-o-cresyl phosphate)] | 17
O=c1cc(-c2ccc(O)cc2)oc2cc(OC3OC(CO)C(O)C(O)C3OC3OCC(O)(CO)C3O)cc(O)c12 (configuration not stated) [Apiin] | 10.3
Nc1ccc2nc3c(N)cccc3nc2c1 [1,7-Diaminophenazine] | 8.24
